Consider ten molecules from patent US11407760B2, “Dioxinoquinoline compounds, preparation method and uses thereof” (BEIJING SCITECH-MQ PHARMACEUTICALS LIMITED, priority 2018, dated 2022).

Each structure is given as a SMILES string.

One test has as its target c-MET kinase (Homo sapiens (Human), UniProt P08581). Kind of test: Assay of small molecular compounds for inhibiting the activity of c-MET kinase (LANCE TR-FRET). It is filed as biochemical. The settings on record: c-MET tyrosine kinase, 60 min reaction. The protocol:
Biological Example 1. Assay of Small Molecular Compounds for Inhibiting the Activity of c-MET Kinase
(§1) The assay is based on the LANCE TR-FRET technology of Perkin Elmer Inc., and the assay method is as follows:
(§2) 1. Dilution of compounds: a total of 11 concentrations were obtained using a 3-fold gradient dilution from the highest concentration of 2500 nM (the maximum final concentration of the drug used in this assay was 2500 nM, and the minimum final concentration was 0.042 nM).
(§3) 2. 2.5 μL of the gradient-diluted compounds were taken with a transfer pipette to a 384-well plate.
3. Addition of enzyme: 5 μL of 2× c-MET kinase solution (concentration was 2 nM) was taken with a transfer pipette to the corresponding reaction well of the 384-well plate, mixed well and pre-reacted at room temperature for 5 minutes.
4. 2.5 μL 4× Ultra ULight™-JAK-1 (Tyr1023) Peptide (concentration was 400 nM)/ATP (concentration was 40 μM) mixture was taken with a transfer pipette to the corresponding reaction well of the 384-well plate.
(§4) 5. Negative control: 2.5 μL/well 4× substrate/ATP mixture and 7.5 μL 1× Kinase Assay Buffer were added to the wells of the 384-well plate.
6. Positive control: 2.5 μL/well 4× substrate/ATP mixture, 2.5 μL/well 1× Kinase Assay Buffer containing 16% DMSO, and 5 µL/well 2× c-MET kinase solution were added to the 384-well plate. The final concentration of DMSO in the reaction system was 4%.
(§5) 7. The mixture was mixed well and then centrifuged and reacted at room temperature in dark for 60 min.
(§6) 8. Termination of the enzymatic reaction: 5 μL of 4× stop solution was taken with a transfer pipette to the wells of the 384-well plate, mixed and then centrifuged, and reacted at room temperature for 5 min.
(§7) 9. Development of the reaction: 5 μL of 4× detection solution was taken with a transfer pipette to the wells of the 384-well plate for color development, and the mixture was mixed and then centrifuged and reacted at room temperature for 60 min.
(§8) 10. The 384-well plate was placed into the Envision plate reader and the signal was detected using the appropriate program.
11. […]
(Time-resolved FRET reads energy transfer from a long-lived donor to a nearby acceptor.)

In a further test the target is VEGFR-2 kinase (Homo sapiens (Human), UniProt P35968). Kind of test: Assay of small molecular compounds for inhibiting the activity of VEGFR-2 kinase (LANCE TR-FRET). It is filed as biochemical. The settings on record: VEGFR-2 tyrosine kinase, 60 min reaction. The protocol: Biological Example 2. Assay of Small Molecular Compounds for Inhibiting the Activity of VEGFR-2 Kinase
as §1, §2, §3
3. Addition of enzyme: 5 μL of 2× VEGFR-2 kinase solution (concentration was 0.5 nM) was taken with a transfer pipette to the corresponding reaction well of the 384-well plate, mixed well and pre-reacted at room temperature for 30 minutes.
4. 2.5 μL 4× Ultra ULight™-JAK-1 (Tyr1023) Peptide (concentration was 200 nM)/ATP (concentration was 40 μM) mixture was taken with a transfer pipette to the corresponding reaction well of the 384-well plate.
as §4
6. Positive control: 2.5 μL/well 4× substrate/ATP mixture, 2.5 μL/well 1× Kinase Assay Buffer containing 16% DMSO, and 5 μL/well 2× VEGFR-2 kinase solution were added to the 384-well plate. The final concentration of DMSO in the reaction system was 4%.
as §5, §6, §7, §8
11. Analysis and processing of the raw data:
The drug concentrations and the corresponding inhibition rates were input into GraphPad Prism5 for calculation, and the inhibition rate of the compounds were calculated as follows: inhibition rate (%)=(reading of positive well−reading of experimental well)/(reading of positive control well−reading of negative control well)×100%. Processing with GraphPad Prism5 software yielded the corresponding IC50 values (the concentration of the compound at which 50% of the highest inhibition of the enzyme is achieved).

The subject of another test is MHCC97H cells. Kind of test: Inhibitory activity on the proliferation of MHCC97H cells (CCK-8). In kind it is cell-based. The settings on record: Homo sapiens, MHCC97H cell proliferation, 72 hours of incubation. The procedure:
Biological Example 3. Assay of the Inhibitory Activity of Small Molecular Compounds on the Proliferation of MHCC97H Cells
The specific steps of the assay are as follows:
1. Dilution of compounds: a total of 9 concentrations were obtained using a 3-fold gradient dilution from the highest concentration of 5000 nM (the maximum final concentration of the drug used in this assay was 5000 nM, and the minimum final concentration was 0.76 nM).
2. MHCC97H cells were collected, then transferred to a 15 mL centrifuge tube, and centrifuged at 1000 rpm for 5 minutes.
3. The supernatant was discarded, and the complete medium was added and pipetted evenly, 10 μL of cell suspension was taken out and mixed evenly with 10 μL of 0.4% trypan blue, the counting was carried out with a cell counter, and the number and survival rate of cells were recorded;
4. The cell suspension was seeded into a 96-well plate at 5000 cells/80 μL per well;
5. 20 μL of the corresponding 5× compound solution diluted with the medium mentioned above was added to each well and mixed evenly;
6. After 72 hours of incubation, 10 μL of CCK-8 reagent was added to each well and incubated for another 2 hours (the reaction time can be adjusted according to the color depth);
7. The OD value was read at 450 nm on a multi-function plate reader.
8. Data processing: cell survival rate (%)=[(As−Ab)/(Ac−Ab)]*100%
As: OD value of assay well (medium containing cells, CCK-8, compound),
Ac: OD value of control well (medium containing cells, CCK-8),
Ab: OD value of blank well (CCK-8, medium without cell and compound),
The values were then imported into Graphpad Prism5 software for curve fitting, and IC50 was calculated.
Table 3 lists the assay results of the inhibitory activity of some compounds disclosed herein on the proliferation of the MHCC97H cell line.

VEGFR-2 kinase, sequence (P35968 20-1356): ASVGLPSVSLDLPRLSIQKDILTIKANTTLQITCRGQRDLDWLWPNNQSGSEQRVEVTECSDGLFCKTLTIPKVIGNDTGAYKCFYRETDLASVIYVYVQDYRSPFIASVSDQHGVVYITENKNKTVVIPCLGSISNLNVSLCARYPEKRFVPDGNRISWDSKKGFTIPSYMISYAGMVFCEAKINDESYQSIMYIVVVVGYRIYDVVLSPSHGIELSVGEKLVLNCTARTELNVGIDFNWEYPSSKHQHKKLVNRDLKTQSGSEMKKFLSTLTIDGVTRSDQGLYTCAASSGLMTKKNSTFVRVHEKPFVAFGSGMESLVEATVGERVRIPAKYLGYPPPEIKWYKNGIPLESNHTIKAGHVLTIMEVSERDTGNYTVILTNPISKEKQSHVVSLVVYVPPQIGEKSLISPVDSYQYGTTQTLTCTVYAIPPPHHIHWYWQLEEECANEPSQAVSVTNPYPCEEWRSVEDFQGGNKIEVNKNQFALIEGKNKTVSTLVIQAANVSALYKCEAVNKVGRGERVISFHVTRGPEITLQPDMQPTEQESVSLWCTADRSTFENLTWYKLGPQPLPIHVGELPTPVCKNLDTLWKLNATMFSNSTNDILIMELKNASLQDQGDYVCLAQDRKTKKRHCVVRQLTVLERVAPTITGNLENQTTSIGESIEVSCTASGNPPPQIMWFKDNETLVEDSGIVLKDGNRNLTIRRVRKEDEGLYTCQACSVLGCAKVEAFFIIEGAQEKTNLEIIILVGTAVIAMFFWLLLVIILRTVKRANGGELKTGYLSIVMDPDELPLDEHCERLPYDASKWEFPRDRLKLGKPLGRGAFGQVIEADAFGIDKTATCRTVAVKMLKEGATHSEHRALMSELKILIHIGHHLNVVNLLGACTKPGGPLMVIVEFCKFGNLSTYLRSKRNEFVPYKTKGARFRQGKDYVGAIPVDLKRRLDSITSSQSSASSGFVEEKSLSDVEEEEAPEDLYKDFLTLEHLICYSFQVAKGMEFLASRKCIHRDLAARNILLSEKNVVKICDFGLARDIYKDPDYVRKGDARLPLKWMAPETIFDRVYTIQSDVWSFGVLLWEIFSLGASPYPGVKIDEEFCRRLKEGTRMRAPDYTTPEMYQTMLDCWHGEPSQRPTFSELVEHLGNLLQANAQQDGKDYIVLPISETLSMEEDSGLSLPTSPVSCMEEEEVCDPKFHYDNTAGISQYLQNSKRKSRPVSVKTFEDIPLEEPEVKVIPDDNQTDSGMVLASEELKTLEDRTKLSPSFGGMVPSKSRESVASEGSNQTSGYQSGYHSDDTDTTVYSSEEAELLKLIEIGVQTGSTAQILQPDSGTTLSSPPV
c-MET kinase, sequence (P08581 25-1390): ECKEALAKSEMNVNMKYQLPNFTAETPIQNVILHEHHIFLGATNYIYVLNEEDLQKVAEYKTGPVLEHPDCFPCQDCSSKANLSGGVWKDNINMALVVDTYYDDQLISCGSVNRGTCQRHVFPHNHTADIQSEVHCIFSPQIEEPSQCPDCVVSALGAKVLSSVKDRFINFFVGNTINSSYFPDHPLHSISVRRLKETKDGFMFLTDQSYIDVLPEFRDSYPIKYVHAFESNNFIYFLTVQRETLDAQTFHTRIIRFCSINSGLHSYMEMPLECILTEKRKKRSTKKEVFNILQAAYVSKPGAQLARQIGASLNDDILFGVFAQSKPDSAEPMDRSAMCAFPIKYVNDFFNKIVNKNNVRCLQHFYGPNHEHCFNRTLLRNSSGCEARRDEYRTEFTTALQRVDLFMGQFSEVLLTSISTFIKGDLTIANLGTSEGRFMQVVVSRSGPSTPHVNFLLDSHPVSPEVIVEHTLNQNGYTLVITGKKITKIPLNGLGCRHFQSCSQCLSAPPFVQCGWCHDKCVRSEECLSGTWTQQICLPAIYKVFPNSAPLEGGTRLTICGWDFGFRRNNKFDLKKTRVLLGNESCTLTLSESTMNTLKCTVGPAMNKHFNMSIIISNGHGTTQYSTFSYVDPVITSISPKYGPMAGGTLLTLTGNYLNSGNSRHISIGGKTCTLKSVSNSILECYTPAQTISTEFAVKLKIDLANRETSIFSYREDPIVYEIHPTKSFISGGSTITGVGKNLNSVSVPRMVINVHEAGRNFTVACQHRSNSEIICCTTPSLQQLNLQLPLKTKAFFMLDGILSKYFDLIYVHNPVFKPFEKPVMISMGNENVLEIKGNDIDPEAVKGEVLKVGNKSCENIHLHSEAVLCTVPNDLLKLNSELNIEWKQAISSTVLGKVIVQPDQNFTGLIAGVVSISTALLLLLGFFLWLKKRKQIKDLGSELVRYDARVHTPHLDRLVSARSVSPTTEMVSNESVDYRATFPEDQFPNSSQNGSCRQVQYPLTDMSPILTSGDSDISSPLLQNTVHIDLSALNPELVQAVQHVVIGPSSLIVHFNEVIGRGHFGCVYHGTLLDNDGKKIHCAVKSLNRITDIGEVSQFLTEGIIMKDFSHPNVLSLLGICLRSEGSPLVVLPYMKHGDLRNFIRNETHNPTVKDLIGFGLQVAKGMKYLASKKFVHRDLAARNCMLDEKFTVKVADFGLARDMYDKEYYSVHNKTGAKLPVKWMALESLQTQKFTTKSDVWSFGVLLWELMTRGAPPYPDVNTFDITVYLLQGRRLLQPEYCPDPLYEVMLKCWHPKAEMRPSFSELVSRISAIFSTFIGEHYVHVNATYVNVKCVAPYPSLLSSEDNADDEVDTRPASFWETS

What is called IC50 is the concentration needed to halve the response being measured. Low values mean inhibition by little substance, high ones a need for much substance. The molecule `O=C(Nc1ccc(F)cc1)C1(C(=O)Nc2ccc(Oc3ccnc4cc(OCC5CC5)c5c(c34)OCCO5)c(F)c2)CC1` [Example 11, N-(4-((5-(cyclopropylmethoxy)-2,3-dihydro-[1,4]dioxino[2,3-f]quinolin-10-yl)oxy)-3-fluorophenyl)-N-(4-fluorophenyl)cyclopropan-1,1-dicarboxamide] showed an IC50 on c-MET kinase of 50 to 500 nM.

Take `CC(C)COc1cc2nccc(Oc3ccc(NC(=O)C4(C(=O)Nc5ccc(F)cc5)CC4)cc3F)c2c2c1OCCO2` [Example 12, N-(4-((5-(isobutyloxy)-2,3-dihydro-[1,4]dioxino[2,3-f]quinolin-10-yl)oxy)-3-fluorophenyl)-N-(4-fluorophenyl)cyclopropan-1,1-dicarboxamide]: the IC50 against c-MET kinase fell in the range of 50 to 500 nM.

`O=C(Nc1ccc(F)cc1)C1(C(=O)Nc2ccc(Oc3ccnc4cc(OC5CCOCC5)c5c(c34)OCCO5)c(F)c2)CC1` [Example 18, N-(3-fluoro-4-((5-((tetrahydropyran-4-yl)oxy)-2,3-dihydro-[1,4]dioxino[2,3-f]quinolin-10-yl)oxy)phenyl)-N-(4-fluorophenyl)cyclopropan-1,1-dicarboxamide] gave an IC50 at VEGFR-2 kinase of 50 to 500 nM. As for `CC(=O)N1CCN(CCCOc2cc3nccc(Oc4ccc(NC(=O)C5(C(=O)Nc6ccc(F)cc6)CC5)cc4F)c3c3c2OCCO3)CC1` [Example 19], the half-maximal inhibitory concentration (IC50) was ≤ 50 nM at c-MET kinase, ≤ 50 nM at VEGFR-2 kinase and < 50 nM in the test with MHCC97H cells. `N#CCOc1cc2nccc(Oc3ccc(NC(=O)C4(C(=O)Nc5ccc(F)cc5)CC4)cc3F)c2c2c1OCCO2` [Example 20, N-(4-((5-(cyanomethoxy)-2,3-dihydro-[1,4]dioxino[2,3-f]quinolin-10-yl)oxy)-3-fluorophenyl)-N-(4-fluorophenyl)cyclopropan-1,1-dicarboxamide]: the concentration for half-maximal inhibition (IC50) at VEGFR-2 kinase was 50 to 500 nM; in the test with MHCC97H cells it was < 50 nM. As to `CC1(N)CCN(CCCOc2cc3nccc(Oc4ccc(NC(=O)C5(C(=O)Nc6ccc(F)cc6)CC5)cc4F)c3c3c2OCCO3)CC1` [Example 30, N-(3-fluoro-4-((5-(3-(4-amino-4-methylpiperidin-1-yl)propoxy)-2,3-dihydro-[1,4]dioxino[2,3-f]quinolin-10-yl)oxy)phenyl)-N-(4-fluorophenyl)cyclopropan-1,1-dicarboxamide], in the test with MHCC97H cells, the IC50 was < 500 nM. Same read-out and setting: in the case of `O=C(Nc1ccc(F)cc1)C1(C(=O)Nc2ccc(Oc3ccnc4cc(OCCO)c5c(c34)OCCO5)c(F)c2)CC1` [Example 32, N-(3-fluoro-4-((5-(2-hydroxyethoxy)-2,3-dihydro-[1,4]dioxino[2,3-f]quinolin-10-yl)oxy)phenyl)-N-(4-fluorophenyl)cyclopropan-1,1-dicarboxamide] it was < 50 nM; in that of `NC1(COc2cc3nccc(Oc4ccc(NC(=O)C5(C(=O)Nc6ccc(F)cc6)CC5)cc4F)c3c3c2OCCO3)CC1` [Example 33, N-(4-((5-((1-aminocyclopropyl)methoxy)-2,3-dihydro-[1,4]dioxino[2,3-f]quinolin-10-yl)oxy)-3-fluorophenyl)-N-(4-fluorophenyl)cyclopropan-1,1-dicarboxamide], < 50 nM.

On to `COc1cc2nccc(Oc3cc(Cl)c(NC(=O)C4(C(=O)Nc5ccc(F)cc5)CC4)cc3F)c2c2c1OCCO2` [Example 35, N-(2-chloro-5-fluoro-4-((5-methoxy-2,3-dihydro-[1,4]dioxino[2,3-f]quinolin-10-yl)oxy)phenyl)-N-(4-fluorophenyl)cyclopropan-1,1-dicarboxamide], for which, in the test with MHCC97H cells, the IC50 is < 50 nM. On to `O=C(Nc1ccc(F)cc1)C1(C(=O)Nc2ccc(Oc3ccnc4cc(OCCCN5CCOCC5)c5c(c34)OCCO5)cc2Cl)CC1` [Example 36, N-(2-chloro-4-((5-(3-morpholinopropoxy)-2,3-dihydro-[1,4]dioxino[2,3-f]quinolin-10-yl)oxy)phenyl)-N-(4-fluorophenyl)cyclopropan-1,1-dicarboxamide], for which the IC50 against VEGFR-2 kinase is 50 to 500 nM; with MHCC97H cells, < 50 nM.
